Data as given in patent US7473790B2 (Pfizer Inc., priority 2003, dated 2009).

Target: T1, HCV polymerase (Hepatitis C virus genotype 1b, UniProt P26663)
T1 construct: 2.5 pmoles (0.15 μg) HCV polymerase protein in a final volume of 75 μL
Test: HCV polymerase primer/template-directed transcription assay (32P-GTP incorporation, filter binding)
Format: biochemical
Conditions: @ 50 uM compound; given where IC50 was impractical to calculate; read-out: percent inhibition
Outline: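 Recombinant genotype 1b polymerase (30 nM) extended biotin-dG12 primer on poly(rC)300 template with 1 μM GTP plus α-32P-GTP, pH 7.2, 10 mM MgCl2, 30 min at 30° C, 1% DMSO final. Products captured on DE filters and counted. IC50 fitted from triplicate cpm, with a tight-binding correction applied below 200 nM.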

T1 sequence (P26663 2420-3010): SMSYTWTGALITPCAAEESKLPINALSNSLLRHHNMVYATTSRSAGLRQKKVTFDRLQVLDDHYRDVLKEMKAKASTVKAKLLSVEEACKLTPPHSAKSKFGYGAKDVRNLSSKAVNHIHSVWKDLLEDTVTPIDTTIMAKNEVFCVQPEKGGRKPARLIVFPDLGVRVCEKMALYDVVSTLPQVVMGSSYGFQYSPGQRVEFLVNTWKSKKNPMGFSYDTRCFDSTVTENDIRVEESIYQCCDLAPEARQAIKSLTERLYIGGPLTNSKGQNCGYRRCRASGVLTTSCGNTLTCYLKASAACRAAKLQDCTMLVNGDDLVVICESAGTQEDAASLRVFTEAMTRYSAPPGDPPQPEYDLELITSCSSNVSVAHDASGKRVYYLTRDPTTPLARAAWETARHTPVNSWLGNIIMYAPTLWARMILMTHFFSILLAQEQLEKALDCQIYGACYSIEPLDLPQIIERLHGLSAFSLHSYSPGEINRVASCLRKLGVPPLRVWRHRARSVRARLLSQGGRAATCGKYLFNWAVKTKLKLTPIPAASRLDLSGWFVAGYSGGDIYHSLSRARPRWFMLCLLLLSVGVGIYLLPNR

Question: Which inhibition at 50 µM does the source give for `CCOc1ccc2nc(SCC3(C4CCCC4)CC(=O)CC(=O)O3)sc2c1` (stereo not drawn) [I(3), 6-cyclopentyl-6-{[(6-ethoxy-1,3-benzothiazol-2-yl)thio]methyl}dihydro-2H-pyran-2,4(3H)-dione] here?
Answer: Its inhibition at 50 µM is -2%.

Same assay, conditions: recombinant HCV polymerase; 30 minutes at 30° C.; concentration giving 50% inhibition of polymerase-directed transcription; read-out: IC50

Question: `Cc1cc(C)n2nc(CC3C(=O)CC(CCc4ccc(C(C)C)cc4)(C4CCCC4)OC3=O)nc2n1` (stereo not drawn) [B(50), 6-cyclopentyl-3-[(5,7-dimethyl[1,2,4]triazolo[1,5-a]pyrimidin-2-yl)methyl]-6-[2-(4-isopropylphenyl)ethyl]dihydro-2H-pyran-2,4(3H)-dione] was tested. Which IC50 did it give?
Answer: The IC50 was 90 nM.

Question: Which IC50 does the source give for `O=C1CC(=O)OC(CCNC(=O)CCc2ccco2)(C2CCCC2)C1` (stereo not drawn) [H(1), N-[2-(2-Cyclopentyl-4,6-dioxo-tetrahydro-pyran-2-yl)-ethyl]-3-furan-2-yl-propionamide] here?
Answer: Its IC50 is 1000 nM.

Question: Which IC50 does the source give for `O=C1OC(CCc2ccc(OCc3ccccc3)cc2)(C2CCCC2)CC(O)=C1Cc1cc(=O)[nH]c(C2CC2)n1` (stereo not drawn) [B(67), 6-[(6-{2-[4-(Benzyloxy)phenyl]ethyl}-6-cyclopentyl-4-hydroxy-2-oxo-5,6-dihydro-2H-pyran-3-yl)methyl]-2-cyclopropylpyrimidin-4(3H)-one] here?
Answer: The IC50 was 3200 nM.

Question: With `COc1ccc(CCC2(C3CCCC3)CC(O)=C(Cc3nc4cc(Cl)ccc4n3C)C(=O)O2)cc1Cl` (stereo not drawn) [B(43), 6-[2-(3-chloro-4-methoxyphenyl)ethyl]-3-[(5-chloro-1-methyl-1H-benzimidazol-2-yl)methyl]-6-cyclopentyl-4-hydroxy-5,6-dihydro-2H-pyran-2-one] as the compound, how does the IC50 read?
Answer: Its IC50 is 360 nM.

Question: Which IC50 does the source give for `CCCOc1ccc(CCC2(C3CCCC3)CC(O)=C(Cc3nc4nc(C)cc(C)n4n3)C(=O)O2)cc1` (stereo not drawn) [B(41), 6-Cyclopentyl-3-(5,7-dimethyl-[1,2,4]triazolo[1,5-a]pyrimidin-2-ylmethyl)-4-hydroxy-6-[2-(4-propoxy-phenyl)-ethyl]-5,6-dihydro-pyran-2-one] here?
Answer: The IC50 was 120 nM.

Question: How did the IC50 turn out when `CCc1cc(CCC2(C3CCCC3)CC(O)=C(Cc3nc4ncc(C)cn4n3)C(=O)O2)ccc1OCCOC` (stereo not drawn) [A(185), 6-Cyclopentyl-6-{2-[3-ethyl-4-(2-methoxy-ethoxy)-phenyl]-ethyl}-4-hydroxy-3-(6-methyl-[1,2,4]triazolo[1,5-a]pyrimidin-2-ylmethyl)-5,6-dihydro-pyran-2-one] was run?
Answer: Its IC50 is 8 nM.

Question: `CC(C)(C#N)c1ccc(CCC2(C3CCCC3)CC(O)=C(Cc3nc4ncc(Cl)cn4n3)C(=O)O2)cc1Cl` (stereo not drawn) [A(198), 2-(2-Chloro-4-{2-[5-(6-chloro-[1,2,4]triazolo[1,5-a]pyrimidin-2-ylmethyl)-2-cyclopentyl-4-hydroxy-6-oxo-3,6-dihydro-2H-pyran-2-yl]-ethyl}-phenyl)-2-methyl-propionitrile] was tested. Which IC50 did it give?
Answer: The IC50 was 16 nM.

Question: `CC(C)(CNC(=O)CCc1ccco1)c1cccc(CCC2(C3CCCC3)CC(=O)CC(=O)O2)c1` (stereo not drawn) [A(72), N-(2-{3-[2-(2-Cyclopentyl-4,6-dioxo-tetrahydro-pyran-2-yl)-ethyl]-phenyl}-2-methyl-propyl)-3-furan-2-yl-propionamide] was tested. Which IC50 did it give?
Answer: Its IC50 is 1500 nM.

Question: For `COc1cc(OC)c(CCC2(C3CCCC3)CC(O)=C(Cc3nc(C)cc(=O)[nH]3)C(=O)O2)cc1Cl` (stereo not drawn) [B(68), 2-({6-[2-(5-Chloro-2,4-dimethoxyphenyl)ethyl]-6-cyclopentyl-4-hydroxy-2-oxo-5,6-dihydro-2H-pyran-3-yl}methyl)-6-methylpyrimidin-4(3H)-one], which IC50 is on record?
Answer: The IC50 was 100 nM.

Question: For `CC(C)(C#N)c1ccc(OCC2(C3CCCC3)CC(=O)CC(=O)O2)cc1F` (stereo not drawn) [C(110), 2-[4-(2-Cyclopentyl-4,6-dioxo-tetrahydro-pyran-2-ylmethoxy)-2-fluoro-phenyl]-2-methyl-propionitrile], which IC50 is on record?
Answer: Its IC50 is 7600 nM.

Question: How did the IC50 turn out when `COc1ccc(CCC2(C3CCCC3)CC(O)=C(Sc3ncc[nH]3)C(=O)O2)cc1Cl` (stereo not drawn) [C(103), 6-[2-(3-chloro-4-methoxyphenyl)ethyl]-6-cyclopentyl-4-hydroxy-3-(1H-imidazol-2-ylthio)-5,6-dihydro-2H-pyran-2-one] was run?
Answer: Its IC50 is 240 nM.

Question: `CCOC(=O)c1cnc2nc(SC3=C(O)CC(CCc4ccc(OC)c(Cl)c4)(C4CCCC4)OC3=O)nn2c1` (stereo not drawn) [C(94), ethyl 2-({6-[2-(3-chloro-4-methoxyphenyl)ethyl]-6-cyclopentyl-4-hydroxy-2-oxo-5,6-dihydro-2H-pyran-3-yl}thio)[1,2,4]triazolo[1,5-a]pyrimidine-6-carboxylate] was tested. Which IC50 did it give?
Answer: Its IC50 is 87 nM.

Question: `COc1cccc(CC2=C(O)CC(CCc3ccc(C(C)(C)C#N)c(F)c3)(C3CCCC3)OC2=O)c1` (stereo not drawn) [A(100), 2-(4-{2-[2-cyclopentyl-4-hydroxy-5-(3-methoxybenzyl)-6-oxo-3,6-dihydro-2H-pyran-2-yl]ethyl}-2-fluorophenyl)-2-methylpropanenitrile] was tested. Which IC50 did it give?
Answer: Its IC50 is 88 nM.

Question: With `Cc1cc(C)n2nc(CC3=C(O)CC(CCc4ccc(O)c(C(C)(C)C)c4)(C4CCCC4)OC3=O)nc2n1` (stereo not drawn) [B(08), 6-[2-(3-tert-Butyl-4-hydroxy-phenyl)-ethyl]-6-cyclopentyl-3-(5,7-dimethyl-[1,2,4]triazolo[1,5-a]pyrimidin-2-ylmethyl)-4-hydroxy-5,6-dihydro-pyran-2-one] as the compound, how does the IC50 read?
Answer: The IC50 was 13 nM.

Question: How did the IC50 turn out when `N#Cc1ccccc1CCC1(C2CCCC2)CC(=O)CC(=O)O1` (stereo not drawn) [A(46), 2-[2-(2-Cyclopentyl-4,6-dioxo-tetrahydro-pyran-2-yl)-ethyl]-benzonitrile] was run?
Answer: The IC50 was 73000 nM.

Question: For `CCc1cc(CCC2(C3CCCC3)CC(O)=C(Cc3nc4ncc(Cl)cn4n3)C(=O)O2)c(C)cc1O` (stereo not drawn) [A(160), 3-(6-Chloro-[1,2,4]triazolo[1,5-a]pyrimidin-2-ylmethyl)-6-cyclopentyl-6-[2-(5-ethyl-4-hydroxy-2-methyl-phenyl)-ethyl]-4-hydroxy-5,6-dihydro-pyran-2-one], which IC50 is on record?
Answer: Its IC50 is 29 nM.

Question: Which IC50 does the source give for `COc1cc(OC)c(CCC2(C3CCCC3)CC(O)=C(Sc3nc4ncc(C)cn4n3)C(=O)O2)cc1Cl` (stereo not drawn) [C(87), 6-[2-(5-chloro-2,4-dimethoxyphenyl)ethyl]-6-cyclopentyl-4-hydroxy-3-[(6-methyl[1,2,4]triazolo[1,5-a]pyrimidin-2-yl)thio]-5,6-dihydro-2H-pyran-2-one] here?
Answer: Its IC50 is 28 nM.

Question: For `CCC(C#N)(CC)c1c(F)cc(CCC2(C3CCCC3)CC(O)=C(Cc3nc4ncc(C)cn4n3)C(=O)O2)cc1F` (single isomer, unassigned; (-)) [A(264), (−)-2-(4-{2-[2-Cyclopentyl-4-hydroxy-5-(6-methyl-[1,2,4]triazolo[1,5-a]pyrimidin-2-ylmethyl)-6-oxo-3,6-dihydro-2H-pyran-2-yl]-ethyl}-2,6-difluoro-phenyl)-2-ethyl-butyronitrile], which IC50 is on record?
Answer: Its IC50 is 4 nM.

Question: `Cc1cc(C)n2nc(CC3C(=O)CC(CCc4cccc(Cl)c4)(C4CCCC4)OC3=O)nc2n1` (stereo not drawn) [B(51), 6-[2-(3-chlorophenyl)ethyl]-6-cyclopentyl-3-[(5,7-dimethyl[1,2,4]triazolo[1,5-a]pyrimidin-2-yl)methyl]dihydro-2H-pyran-2,4(3H)-dione] was tested. Which IC50 did it give?
Answer: Its IC50 is 72 nM.

Question: With `Cc1cc(C)n2nc(CC3=C(O)CC(CCc4ccc(OCC5CC5)c(F)c4)(C4CCCC4)OC3=O)nc2n1` (stereo not drawn) [B(33), 6-Cyclopentyl-6-[2-(4-cyclopropylmethoxy-3-fluoro-phenyl)-ethyl]-3-(5,7-dimethyl-[1,2,4]triazolo[1,5-a]pyrimidin-2-ylmethyl)-4-hydroxy-5,6-dihydro-pyran-2-one] as the compound, how does the IC50 read?
Answer: Its IC50 is 136 nM.

Question: For `COc1ccc(CCC2(C3CCCC3)CC(O)=C(Sc3nc4cc(Cl)c(Cl)cc4n3C)C(=O)O2)cc1Cl` (stereo not drawn) [C(60), 6-[2-(3-chloro-4-methoxyphenyl)ethyl]-6-cyclopentyl-3-[(5,6-dichloro-1-methyl-1H-benzimidazol-2-yl)thio]-4-hydroxy-5,6-dihydro-2H-pyran-2-one], which IC50 is on record?
Answer: The IC50 was 15 nM.

Question: With `C=CCC1C(=O)CC(CCc2ccc(OC)c(Cl)c2)(C2CCCC2)OC1=O` (stereo not drawn) [B(79), 3-allyl-6-[2-(3-chloro-4-methoxyphenyl)ethyl]-6-cyclopentyldihydro-2H-pyran-2,4(3H)-dione] as the compound, how does the IC50 read?
Answer: Its IC50 is 2400 nM.

Question: Which IC50 does the source give for `COc1ccc(CCC2(C3CCCC3)CC(=O)CC(=O)O2)cc1C1CC1` (stereo not drawn) [A(130), 6-Cyclopentyl-6-[2-(3-cyclopropyl-4-methoxy-phenyl)-ethyl]-dihydro-pyran-2,4-dione] here?
Answer: Its IC50 is 1300 nM.

Question: With `COc1ccc(CCC2(C3CCCC3)CC(O)=C(Sc3nc4ccccc4n3-c3ccccc3)C(=O)O2)cc1Cl` (stereo not drawn) [C(48), 6-[2-(3-chloro-4-methoxyphenyl)ethyl]-6-cyclopentyl-4-hydroxy-3-[(1-phenyl-1H-benzimidazol-2-yl)thio]-5,6-dihydro-2H-pyran-2-one] as the compound, how does the IC50 read?
Answer: Its IC50 is 140 nM.

Question: Which IC50 does the source give for `CC(C#N)c1ccc(CCC2(C3CCCC3)CC(=O)CC(=O)O2)cc1F` (stereo not drawn) [A(241), 2-{4-[2-(2-Cyclopentyl-4,6-dioxo-tetrahydro-pyran-2-yl)-ethyl]-2-fluoro-phenyl}-propionitrile] here?
Answer: Its IC50 is 800 nM.

Question: For `CCOc1ccc2[nH]c(SC3=C(O)CC(CCc4ccc(OC)c(Cl)c4)(C4CCCC4)OC3=O)nc2c1` (stereo not drawn) [C(59), 6-[2-(3-chloro-4-methoxyphenyl)ethyl]-6-cyclopentyl-3-[(5-ethoxy-1H-benzimidazol-2-yl)thio]-4-hydroxy-5,6-dihydro-2H-pyran-2-one], which IC50 is on record?
Answer: The IC50 was 200 nM.

Question: How did the IC50 turn out when `O=C1CC(=O)OC(CCc2ccc(CCO)c(F)c2)(C2CCCC2)C1` (stereo not drawn) [A(120)] was run?
Answer: The IC50 was 13000 nM.

Question: Which IC50 does the source give for `CCc1cc(CCC2(C3CCCC3)CC(O)=C(Cc3nc4ncc(C)cn4n3)C(=O)O2)c(OC)cc1O` (racemic) [A(213), 3-[(6-methyl[1,2,4]triazolo[1,5-a]pyrimidin-2-yl)methyl]-6-cyclopentyl-6-[2-(5-ethyl-4-hydroxy-2-methoxyphenyl)ethyl]-4-hydroxy-5,6-dihydro-2H-pyran-2-one] here?
Answer: Its IC50 is 4.5 nM.

Question: For `CCC(C#N)(CC)c1ccc(CCC2(C3CCCC3)CC(O)=C(Cc3nc4ncc(Cl)cn4n3)C(=O)O2)cc1F` (single isomer, unassigned; (-)) [A(267), (−)-2-(4-{2-[5-(6-Chloro-[1,2,4]triazolo[1,5-a]pyrimidin-2-ylmethyl)-2-cyclopentyl-4-hydroxy-6-oxo-3,6-dihydro-2H-pyran-2-yl]-ethyl}-2-fluoro-phenyl)-2-ethyl-butyronitrile], which IC50 is on record?
Answer: The IC50 was 4 nM.
